Values joined by “and” are separate entries in the source; they are usually repeats but may differ in a detail not shown here. Identical values can stand only once. Inconclusive results and toxic doses are left out.
System: L1210 leukemia ip in BDF1 mice, survival T/C
Test: NCI In Vivo Anticancer Drug Screen. Data for tumor model L1210 Leukemia (intraperitoneal) in B6D2F1 (BDF1) mice
Settings: endpoint: mean survival time, higher = longer survival
Summary of the method: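 In this screen, tumor-bearing mice given compound are compared to those given vehicle, and their survival values are reported as a treated-to-control quotient.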

[1] = dose: 100.0 mg/kg/injection, schedule: Q04DX003 (ip), vehicle: saline with Tween-80
[2] = dose: 200.0 mg/kg/injection, schedule: Q04DX003 (ip), vehicle: saline with Tween-80
[3] = dose: 400.0 mg/kg/injection, schedule: Q04DX003 (ip), vehicle: saline with Tween-80
[4] = dose: 100.0 mg/kg/injection, schedule: Q01DX009 (ip), vehicle: saline with Tween-80
[5] = dose: 200.0 mg/kg/injection, schedule: Q01DX009 (ip), vehicle: saline with Tween-80
[6] = dose: 400.0 mg/kg/injection, schedule: Q01DX009 (ip), vehicle: saline with Tween-80
[7] = dose: 50.0 mg/kg/injection, schedule: Q01DX001 (ip), vehicle: carboxymethylcellulose (CMC)
[8] = dose: 100.0 mg/kg/injection, schedule: Q01DX001 (ip), vehicle: carboxymethylcellulose (CMC)
[9] = dose: 100.0 mg/kg/injection, schedule: Q04DX003 (ip), vehicle: Klucel (hydroxypropylcellulose) (HPC)
[10] = dose: 200.0 mg/kg/injection, schedule: Q04DX003 (ip), vehicle: Klucel (hydroxypropylcellulose) (HPC)
[11] = dose: 400.0 mg/kg/injection, schedule: Q04DX003 (ip), vehicle: Klucel (hydroxypropylcellulose) (HPC)
[12] = dose: 1.56 mg/kg/injection, schedule: Q01DX009 (ip), vehicle: saline with Tween-80
[13] = dose: 3.13 mg/kg/injection, schedule: Q01DX009 (ip), vehicle: saline with Tween-80
[14] = dose: 6.25 mg/kg/injection, schedule: Q01DX009 (ip), vehicle: saline with Tween-80
[15] = dose: 100.0 mg/kg/injection, schedule: Q01DX009 (ip), vehicle: Klucel (hydroxypropylcellulose) (HPC)
[16] = dose: 200.0 mg/kg/injection, schedule: Q01DX009 (ip), vehicle: Klucel (hydroxypropylcellulose) (HPC)
[17] = dose: 400.0 mg/kg/injection, schedule: Q01DX009 (ip), vehicle: Klucel (hydroxypropylcellulose) (HPC)

CN(C)S(=O)(=O)c1ccccc1C1(O)CCCCC1
T/C (dose: 100.0 mg/kg/injection, schedule: Q01DX009 (ip), vehicle: other): 87 % of control | T/C [1]: 91 % of control | T/C (dose: 200.0 mg/kg/injection, schedule: Q01DX009 (ip), vehicle: other): 94 % of control | T/C [2]: 102 % of control | T/C (dose: 400.0 mg/kg/injection, schedule: Q01DX009 (ip), vehicle: other): 97 % of control | T/C [3]: 109 % of control

C=CCNC(=S)Nc1ccc(N(C)C)cc1
T/C (dose: 50.0 mg/kg/injection, schedule: Q01DX009 (ip), vehicle: saline with Tween-80): 94 % of control | T/C [4]: 100 % of control | T/C [1]: 103 % of control | T/C [5]: 103 % of control | T/C [2]: 95 % of control

COCCNP(=S)(OC)OC
T/C [4]: 93 % of control | T/C [1]: 101 % of control | T/C [5]: 95 % of control | T/C [2]: 106 % of control | T/C [6]: 101 % of control | T/C [3]: 92 % of control

COc1ccc2c(c1)C(C)(C)N(C)CC2
T/C (dose: 100.0 mg/kg/injection, schedule: Q04DX003 (ip), vehicle: acetone): 104 % of control

Cc1ccc(NC(=O)N(CCCl)N=O)cc1
T/C (dose: 0.5 mg/kg/injection, schedule: Q01DX015 (ip), vehicle: carboxymethylcellulose (CMC)): 103 % of control | T/C (dose: 1.0 mg/kg/injection, schedule: Q01DX015 (ip), vehicle: carboxymethylcellulose (CMC)): 107 % of control | T/C (dose: 5.2 mg/kg/injection, schedule: Q01DX015 (ip), vehicle: carboxymethylcellulose (CMC)): 169 % of control | T/C (dose: 9.0 mg/kg/injection, schedule: Q01DX015 (ip), vehicle: carboxymethylcellulose (CMC)): 165 % of control | T/C (dose: 15.0 mg/kg/injection, schedule: Q01DX015 (ip), vehicle: carboxymethylcellulose (CMC)): 206 % of control | T/C (dose: 22.0 mg/kg/injection, schedule: Q01DX001 (ip), vehicle: carboxymethylcellulose (CMC)): 161 % of control | T/C (dose: 25.0 mg/kg/injection, schedule: Q01DX015 (ip), vehicle: carboxymethylcellulose (CMC)): 152 % of control | T/C (dose: 33.0 mg/kg/injection, schedule: Q01DX001 (ip), vehicle: carboxymethylcellulose (CMC)): 152 % of control | T/C [7]: 171 % of control and 197 % of control | T/C (dose: 75.0 mg/kg/injection, schedule: Q01DX001 (ip), vehicle: carboxymethylcellulose (CMC)): 118 % of control | T/C [8]: 86 % of control

CC(C)=CCC(=O)NC(=O)NS(=O)(=O)c1ccc(Cl)cc1
T/C [9]: 100 % of control | T/C [10]: 177 % of control | T/C [11]: 94 % of control

CC[C@](C)(O)C(=O)O[C@H]1C(=O)O[C@@H]2C[C@H]3C(C)=CC(=O)[C@@H](O)[C@]3(C)[C@H]3[C@@]4(O)OC[C@]32[C@@H]1[C@@H](C)[C@H]4O
T/C (dose: 0.2 mg/kg/injection, schedule: Q01DX009 (ip), vehicle: saline): 98 % of control | T/C (dose: 0.3 mg/kg/injection, schedule: Q01DX009 (ip), vehicle: saline): 100 % of control | T/C (dose: 0.44 mg/kg/injection, schedule: Q01DX009 (ip), vehicle: saline): 92 % of control | T/C (dose: 0.66 mg/kg/injection, schedule: Q01DX009 (ip), vehicle: saline): 92 % of control | T/C (dose: 1.0 mg/kg/injection, schedule: Q01DX009 (ip), vehicle: saline): 102 % of control

CSc1ccccc1C[P+](c1ccccc1)(c1ccccc1)c1ccccc1
T/C [12]: 102 % of control | T/C [13]: 103 % of control | T/C [14]: 105 % of control

Clc1cc2c(cc1CO/N=C\c1ccc3c(c1)OCO3)OCO2
T/C (dose: 100.0 mg/kg/injection, schedule: Q04DX003 (ip), vehicle: saline sonified): 90 % of control | T/C (dose: 200.0 mg/kg/injection, schedule: Q04DX003 (ip), vehicle: saline sonified): 88 % of control

O=c1[nH]c2nccnc2[nH]1
T/C (dose: 25.0 mg/kg/injection, schedule: Q01DX009 (ip), vehicle: water): 91 % of control | T/C (dose: 50.0 mg/kg/injection, schedule: Q01DX009 (ip), vehicle: water): 107 % of control | T/C (dose: 200.0 mg/kg/injection, schedule: Q01DX009 (ip), vehicle: water): 96 % of control

COC(=O)N/N=C/c1cccnc1
T/C [15]: 103 % of control | T/C [16]: 103 % of control | T/C [17]: 111 % of control

CCP(C)(C)=S
T/C (dose: 25.0 mg/kg/injection, schedule: Q04DX002 (ip), vehicle: Klucel (hydroxypropylcellulose) (HPC)): 101 % of control | T/C (dose: 50.0 mg/kg/injection, schedule: Q04DX002 (ip), vehicle: Klucel (hydroxypropylcellulose) (HPC)): 101 % of control | T/C (dose: 100.0 mg/kg/injection, schedule: Q04DX002 (ip), vehicle: Klucel (hydroxypropylcellulose) (HPC)): 108 % of control

C=C[CH2][Sn]([CH2]C=C)([c]1ccccc1)[c]1ccccc1
T/C [12]: 97 % of control | T/C [13]: 92 % of control | T/C [14]: 86 % of control

COC(=O)c1ccccc1NC(=S)NC(=O)c1ccc(OC)cc1
T/C [15]: 93 % of control | T/C [9]: 91 % of control | T/C [16]: 98 % of control | T/C [10]: 104 % of control | T/C [17]: 95 % of control | T/C [11]: 96 % of control

O=C(Nc1ccc(NC(=O)c2ccc(C3=NCCCN3)cc2)cc1)Nc1ccc(C2=NCCCN2)cc1
T/C (dose: 0.62 mg/kg/injection, schedule: Q01DX Z (ip), vehicle: carboxymethylcellulose (CMC)): 103 % of control | T/C (dose: 1.25 mg/kg/injection, schedule: Q01DX Z (ip), vehicle: carboxymethylcellulose (CMC)): 110 % of control | T/C (dose: 2.5 mg/kg/injection, schedule: Q01DX Z (ip), vehicle: carboxymethylcellulose (CMC)): 105 % of control | T/C (dose: 5.0 mg/kg/injection, schedule: Q01DX Z (ip), vehicle: carboxymethylcellulose (CMC)): 174 % of control | T/C (dose: 6.0 mg/kg/injection, schedule: Q01DX Z (ip), vehicle: carboxymethylcellulose (CMC)): 153 % of control | T/C (dose: 8.0 mg/kg/injection, schedule: Q01DX Z (ip), vehicle: carboxymethylcellulose (CMC)): 185 % of control | T/C (dose: 21.0 mg/kg/injection, schedule: Q01DX Z (ip), vehicle: carboxymethylcellulose (CMC)): 113 % of control | T/C (dose: 62.0 mg/kg/injection, schedule: Q01DX Z (oral), vehicle: carboxymethylcellulose (CMC)): 91 % of control | T/C (dose: 125.0 mg/kg/injection, schedule: Q01DX Z (oral), vehicle: carboxymethylcellulose (CMC)): 102 % of control | T/C (dose: 250.0 mg/kg/injection, schedule: Q01DX Z (oral), vehicle: carboxymethylcellulose (CMC)): 98 % of control | T/C (dose: 500.0 mg/kg/injection, schedule: Q01DX Z (oral), vehicle: carboxymethylcellulose (CMC)): 100 % of control

OCC1CC(n2cnc3c(Cl)ncnc32)C(O)C1O (stereo not drawn)
T/C (dose: 75.0 mg/kg/injection, schedule: Q01DX009 (ip), vehicle: saline with Tween-80): 107 % of control | T/C [4]: 101 % of control | T/C (dose: 150.0 mg/kg/injection, schedule: Q01DX009 (ip), vehicle: saline with Tween-80): 92 % of control

CCCCCCCC(=O)N1C=CN(C(=O)CCCCCCC)C1
T/C (dose: 30.0 mg/kg/injection, schedule: Q01DX001 (ip), vehicle: saline): 100 % of control | T/C (dose: 100.0 mg/kg/injection, schedule: Q01DX001 (ip), vehicle: saline): 94 % of control | T/C (dose: 300.0 mg/kg/injection, schedule: Q01DX001 (ip), vehicle: saline): 94 % of control

COc1nc(N)nc2c1ncn2C1OC(CO)CC1O (stereo not drawn)
T/C [7]: 93 % of control | T/C [8]: 93 % of control | T/C (dose: 200.0 mg/kg/injection, schedule: Q01DX001 (ip), vehicle: carboxymethylcellulose (CMC)): 93 % of control | T/C (dose: 400.0 mg/kg/injection, schedule: Q01DX001 (ip), vehicle: carboxymethylcellulose (CMC)): 96 % of control

CC(=O)OCC(OC(C)=O)C(OC1OC(COC(C)=O)C(OC(C)=O)C(OC(C)=O)C1OC(C)=O)C(OC(C)=O)C(C=O)OC(C)=O (stereo not drawn)
T/C (dose: 50.0 mg/kg/injection, schedule: Q01DX009 (ip), vehicle: Klucel (hydroxypropylcellulose) (HPC)): 96 % of control | T/C [15]: 89 % of control | T/C [4]: 102 % of control | T/C [1]: 102 % of control | T/C [16]: 89 % of control | T/C [5]: 102 % of control | T/C [2]: 105 % of control | T/C [6]: 102 % of control | T/C [3]: 94 % of control

CCCCCc1ccccc1
T/C (dose: 200.0 mg/kg/injection, schedule: Q01DX Z (ip), vehicle: carboxymethylcellulose (CMC)): 103 % of control | T/C (dose: 400.0 mg/kg/injection, schedule: Q01DX Z (ip), vehicle: carboxymethylcellulose (CMC)): 108 % of control | T/C (dose: 800.0 mg/kg/injection, schedule: Q01DX Z (ip), vehicle: carboxymethylcellulose (CMC)): 91 % of control

From PubChem BioAssay AID248 (DTP/NCI, 2004)
